Measured values: PMC8793051 (ACS Omega, 2022)

What was measured:
[1] = tested on: oligo-1: d(CGCGAATTCGCG)2; experiment: Fluorescence titration; assay type: binding; conditions: 20 °C, pH 7.2
[2] = tested on: SNB-19; experiment: NCI-60 SRB growth assay; assay type: cell-based, human; conditions: for CC50: SNB-19, read-out: LC50
[3] = tested on: U251; experiment: NCI-60 SRB growth assay; assay type: cell-based, human; conditions: for GI50 / CC50: Homo sapiens; for GI50: U-251; for CC50: U-251, read-out: LC50; for TGI: U251
[4] = tested on: IGROV1; experiment: NCI-60 SRB growth assay; assay type: cell-based, human; conditions: for GI50: IGROV-1; for TGI: IGROV1
[5] = tested on: OVCAR-5; experiment: NCI-60 SRB growth assay; assay type: cell-based, human; conditions: for GI50 / CC50: Homo sapiens; for GI50 / TGI: OVCAR-5; for CC50: OVCAR-5, read-out: LC50
[6] = tested on: SK-OV-3; experiment: NCI-60 SRB growth assay; assay type: cell-based, human; conditions: for GI50 / CC50: Homo sapiens; for GI50 / TGI: SK-OV-3; for CC50: SK-OV-3, read-out: LC50
[7] = tested on: TK-10; experiment: NCI-60 SRB growth assay; assay type: cell-based, human; conditions: for GI50 / CC50: Homo sapiens; for GI50 / TGI: TK-10; for CC50: TK-10, read-out: LC50
[8] = tested on: panel of 60 human cancer cell lines; experiment: cells; conditions: read-out: GI50 concentration range
[9] = tested on: MDA-MB-231 cells; experiment: Cell cycle analysis by flow cytometry; assay type: cell-based, human; conditions: at 6 and 12 h; control 1–2%
[10] = tested on: HL-60(TB)

Compound	Ka binding affinity with oligo-1 [1]	CC50 ([2]; Homo sapiens)	TGI ([2]; SNB-19)	GI50 [3]	CC50 [3]	TGI [3]	GI50 ([4]; Homo sapiens)	TGI [4]	GI50 [5]	CC50 [5]	TGI [5]	GI50 [6]	CC50 [6]	TGI [6]	GI50 [7]	CC50 [7]	TGI [7]	GI50 [8]	TGI [10]	also measured
CCCCN1CCN(c2ccc3[nH]c(-c4ccc5[nH]c(-c6ccc(OCC)c(OCC)c6)nc5c4)nc3c2)CC1 [12a, 5-(4-Butylpiperazin-1-yl)-2-(2-(3,4-diethoxyphenyl)-1H-benzo[d]imidazol-5-yl)-1H-benzo[d]imidazole]	1 × 10^7 M^–1	5580 nM	2610 nM	1280 nM	5650 nM	2690 nM	1150 nM	2600 nM	1900 nM	6080 nM	3400 nM	1330 nM	8010 nM	3270 nM	1660 nM	> 100000 nM	5170 nM	160 to 3600 nM		GI50 ([2]; Homo sapiens, SNB-19): 1220 nM
CCCCN1CCN(c2ccc3[nH]c(-c4ccc5[nH]c(-c6ccc(C(F)(F)F)cc6)nc5c4)nc3c2)CC1 [12b, 5-(5-(4-Butylpiperazin-1-yl)-1H-benzo[d]imidazol-2-yl)2(4(trifluoromethyl)phenyl)-1H-benzo[d]imidazole]	1 × 10^7 M^–1			240 nM		560 nM	1700 nM	3400 nM	1800 nM	5900 nM	3500 nM							160 to 3600 nM	2800 nM	cells in the sub-G1 phase [9]: 7.4%
CCCN1CCN(c2ccc3[nH]c(-c4ccc5[nH]c(-c6ccc(OCC)c(OCC)c6)nc5c4)nc3c2)CC1 [11a, 2-(2-(3,4-Diethoxyphenyl)-1H-benzo[d]imidazol-5-yl)-5-(4-propylpiperazin-1-yl)-1H-benzo[d]imidazole]	3 × 10^7 M^–1	5600 nM	2180 nM	420 nM	4800 nM	1800 nM	760 nM	4100 nM	2090 nM	15900 nM	5010 nM	2100 nM	9900 nM	10200 nM	1220 nM	2470 nM	4900 nM	160 to 3600 nM	2700 nM	CC50 ([4]; Homo sapiens, IGROV-1, read-out: LC50): 37800 nM
